Tested on: K86415-001-R-J1-PDC complex spheroids, viability
Test: Anticancer human tumor K86415-001-R-J1-PDC patient-derived lung adenocarcinoma cell line growth inhibition [RAS]
Conditions: for IC50: curve of first compound; for viability, T/C: stronger effect = lower value
Method in brief: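 Multi-cell-type spheroids: tumor cells plus HUVEC endothelial cells and mesenchymal stem cells. RAS-pathway inhibitors were combined with targeted agents, each dosed in half-log steps down from clinical Cmax, or from 10 microM when Cmax was unknown.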

[1] = second compound 0.000949 µM, first compound 0.00316 µM
[2] = second compound 0.000949 µM, first compound 0.01 µM
[3] = second compound 0.000949 µM, first compound 0.0316 µM
[4] = second compound 0.000949 µM, first compound 0.1 µM
[5] = second compound 0.000949 µM, first compound 0.316 µM
[6] = second compound 0.000949 µM, first compound 1 µM
[7] = second compound 0.003 µM, first compound 0.00316 µM
[8] = second compound 0.003 µM, first compound 0.01 µM
[9] = second compound 0.003 µM, first compound 0.0316 µM
[10] = second compound 0.003 µM, first compound 0.1 µM
[11] = second compound 0.003 µM, first compound 0.316 µM
[12] = second compound 0.003 µM, first compound 1 µM
[13] = second compound 0.00949 µM, first compound 0.00316 µM
[14] = second compound 0.00949 µM, first compound 0.01 µM
[15] = second compound 0.00949 µM, first compound 0.0316 µM
[16] = second compound 0.00949 µM, first compound 0.1 µM
[17] = second compound 0.00949 µM, first compound 0.316 µM
[18] = second compound 0.00949 µM, first compound 1 µM
[19] = second compound 0.03 µM, first compound 0.00316 µM
[20] = second compound 0.03 µM, first compound 0.01 µM
[21] = second compound 0.03 µM, first compound 0.0316 µM
[22] = second compound 0.03 µM, first compound 0.1 µM
[23] = second compound 0.03 µM, first compound 0.316 µM
[24] = second compound 0.03 µM, first compound 1 µM
[25] = second compound 0.0949 µM, first compound 0.00316 µM
[26] = second compound 0.0949 µM, first compound 0.01 µM
[27] = second compound 0.0949 µM, first compound 0.0316 µM
[28] = second compound 0.0949 µM, first compound 0.1 µM
[29] = second compound 0.0949 µM, first compound 0.316 µM
[30] = second compound 0.0949 µM, first compound 1 µM
[31] = second compound 0.3 µM, first compound 0.00316 µM
[32] = second compound 0.3 µM, first compound 0.01 µM
[33] = second compound 0.3 µM, first compound 0.0316 µM
[34] = second compound 0.3 µM, first compound 0.1 µM
[35] = second compound 0.3 µM, first compound 0.316 µM
[36] = second compound 0.3 µM, first compound 1 µM
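Further: spheroids exposed to agents for seven days before readout.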

Q: Which IC50 (second compound 0.000949 µM) does the source give for `C=CC(=O)Nc1cc(Nc2nccc(-c3cn(C)c4ccccc34)n2)c(OC)cc1N(C)CCN(C)C` + CCn1c(-c2cc(N3CCN(C)CC3)cnc2C(C)OC)c2c3cc(ccc31)-c1csc(n1)CC(NC(=O)C1CC1C)C(=O)N1CCCC(N1)C(=O)OCC(C)(C)C2 here?
A: The IC50 was under 3.16 nM.

Q: What about the IC50 (second compound 0.003 µM) of the same compound?
A: The IC50 was under 3.16 nM.

Q: What about the IC50 (second compound 0.00949 µM) of the same compound?
A: Its IC50 is under 3.16 nM.

Q: And the IC50 (second compound 0.03 µM)?
A: The IC50 was under 3.16 nM.

Q: What about the IC50 (second compound 0.0949 µM) of the same compound?
A: The IC50 was under 3.16 nM.

Q: What about the IC50 (second compound 0.3 µM) of the same compound?
A: Its IC50 is under 3.16 nM.

Q: What about the viability, T/C [1] of the same compound?
A: The viability, T/C was 42.7%.

Q: What about the viability, T/C [2] of the same compound?
A: Its viability, T/C is 48.3%.

Q: What about the viability, T/C [3] of the same compound?
A: The viability, T/C was 35.9%.

Q: And the viability, T/C [4]?
A: Its viability, T/C is 38.2%.

Q: What about the viability, T/C [5] of the same compound?
A: The viability, T/C was 21.3%.

Q: And the viability, T/C [6]?
A: The viability, T/C was 12.4%.

Q: And the viability, T/C [7]?
A: The viability, T/C was 24.9%.

Q: What about the viability, T/C [8] of the same compound?
A: Its viability, T/C is 21.3%.

Q: And the viability, T/C [9]?
A: Its viability, T/C is 14.2%.

Q: And the viability, T/C [10]?
A: Its viability, T/C is 17%.

Q: What about the viability, T/C [11] of the same compound?
A: The viability, T/C was 8.65%.

Q: What about the viability, T/C [12] of the same compound?
A: The viability, T/C was 7.93%.

Q: And the viability, T/C [13]?
A: Its viability, T/C is 17.6%.

Q: And the viability, T/C [14]?
A: Its viability, T/C is 9.97%.

Q: What about the viability, T/C [15] of the same compound?
A: The viability, T/C was 7.46%.

Q: And the viability, T/C [16]?
A: Its viability, T/C is 8.25%.

Q: What about the viability, T/C [17] of the same compound?
A: The viability, T/C was 4.55%.

Q: And the viability, T/C [18]?
A: Its viability, T/C is 4.52%.

Q: What about the viability, T/C [19] of the same compound?
A: Its viability, T/C is 7.56%.

Q: What about the viability, T/C [20] of the same compound?
A: Its viability, T/C is 5.27%.

Q: What about the viability, T/C [21] of the same compound?
A: Its viability, T/C is 5.75%.

Q: And the viability, T/C [22]?
A: The viability, T/C was 3.23%.

Q: And the viability, T/C [23]?
A: The viability, T/C was 3.09%.

Q: And the viability, T/C [24]?
A: The viability, T/C was 3.11%.

Q: What about the viability, T/C [25] of the same compound?
A: Its viability, T/C is 3.51%.

Q: What about the viability, T/C [26] of the same compound?
A: Its viability, T/C is 3.84%.

Q: And the viability, T/C [27]?
A: The viability, T/C was 2.21%.

Q: And the viability, T/C [28]?
A: The viability, T/C was 2.65%.

Q: And the viability, T/C [29]?
A: The viability, T/C was 3.94%.

Q: And the viability, T/C [30]?
A: The viability, T/C was 3.24%.

Q: What about the viability, T/C [31] of the same compound?
A: Its viability, T/C is 2.73%.

Q: And the viability, T/C [32]?
A: The viability, T/C was 2.35%.

Q: And the viability, T/C [33]?
A: Its viability, T/C is 2.65%.

Q: And the viability, T/C [34]?
A: The viability, T/C was 2.51%.

Q: And the viability, T/C [35]?
A: The viability, T/C was 2.55%.

Q: And the viability, T/C [36]?
A: Its viability, T/C is 3.25%.

Q: How did the IC50 (second compound 0.000949 µM) turn out when `O=C(c1ccc(F)c(F)c1Nc1ccc(I)cc1F)N1CC(O)([C@@H]2CCCCN2)C1` + CCn1c(-c2cc(N3CCN(C)CC3)cnc2C(C)OC)c2c3cc(ccc31)-c1csc(n1)CC(NC(=O)C1CC1C)C(=O)N1CCCC(N1)C(=O)OCC(C)(C)C2 was run?
A: Its IC50 is under 3.16 nM.

Q: And the IC50 (second compound 0.003 µM)?
A: Its IC50 is under 3.16 nM.

Q: What about the IC50 (second compound 0.00949 µM) of the same compound?
A: Its IC50 is under 3.16 nM.

Q: And the IC50 (second compound 0.03 µM)?
A: Its IC50 is under 3.16 nM.

Q: What about the IC50 (second compound 0.0949 µM) of the same compound?
A: The IC50 was under 3.16 nM.

Q: What about the IC50 (second compound 0.3 µM) of the same compound?
A: Its IC50 is under 3.16 nM.

Q: What about the viability, T/C [1] of the same compound?
A: Its viability, T/C is 44.4%.

Q: What about the viability, T/C [2] of the same compound?
A: Its viability, T/C is 36.8%.

Q: What about the viability, T/C [3] of the same compound?
A: The viability, T/C was 16.1%.

Q: What about the viability, T/C [4] of the same compound?
A: Its viability, T/C is 14.3%.

Q: And the viability, T/C [5]?
A: The viability, T/C was 7.06%.

Q: And the viability, T/C [6]?
A: Its viability, T/C is 3.12%.

Q: What about the viability, T/C [7] of the same compound?
A: Its viability, T/C is 20.1%.

Q: And the viability, T/C [8]?
A: The viability, T/C was 12.8%.

Q: And the viability, T/C [9]?
A: Its viability, T/C is 8.83%.

Q: What about the viability, T/C [10] of the same compound?
A: Its viability, T/C is 4.83%.

Q: And the viability, T/C [11]?
A: The viability, T/C was 3.13%.

Q: And the viability, T/C [12]?
A: Its viability, T/C is 1.88%.

Q: And the viability, T/C [13]?
A: The viability, T/C was 12.8%.

Q: And the viability, T/C [14]?
A: Its viability, T/C is 20.7%.

Q: And the viability, T/C [15]?
A: Its viability, T/C is 3.97%.

Q: And the viability, T/C [16]?
A: Its viability, T/C is 3.06%.

Q: What about the viability, T/C [17] of the same compound?
A: The viability, T/C was 1.18%.

Q: And the viability, T/C [18]?
A: The viability, T/C was 1.4%.

Q: And the viability, T/C [19]?
A: The viability, T/C was 3.31%.

Q: What about the viability, T/C [20] of the same compound?
A: Its viability, T/C is 1.65%.

Q: What about the viability, T/C [21] of the same compound?
A: The viability, T/C was 2.04%.

Q: And the viability, T/C [22]?
A: The viability, T/C was 1.29%.

Q: And the viability, T/C [23]?
A: Its viability, T/C is 1.25%.

Q: And the viability, T/C [24]?
A: The viability, T/C was 0.85%.

Q: What about the viability, T/C [25] of the same compound?
A: Its viability, T/C is 2.17%.

Q: What about the viability, T/C [26] of the same compound?
A: The viability, T/C was 1.59%.

Q: And the viability, T/C [27]?
A: Its viability, T/C is 1.36%.

Q: And the viability, T/C [28]?
A: Its viability, T/C is 0.82%.

Q: And the viability, T/C [29]?
A: Its viability, T/C is 0.8%.

Q: What about the viability, T/C [30] of the same compound?
A: The viability, T/C was 0.95%.

Q: What about the viability, T/C [31] of the same compound?
A: The viability, T/C was 2.23%.

Q: And the viability, T/C [32]?
A: Its viability, T/C is 1.56%.

Q: And the viability, T/C [33]?
A: The viability, T/C was 1.42%.

Q: What about the viability, T/C [34] of the same compound?
A: Its viability, T/C is 0.74%.

Q: What about the viability, T/C [35] of the same compound?
A: The viability, T/C was 0.89%.

Q: And the viability, T/C [36]?
A: The viability, T/C was 0.77%.
